The subject of test [1] is HCT116. Nature of the test: AC50 cell viability (CellTiter-Glo); higher = less potent. The conditions noted are these: 48 h.
For test [2], the system named is HCT116. The test is described as follows: efficacy (fitted maximal change in viability relative to DMSO control); higher = less cytotoxic (negative = loss of viability). Conditions: 48 h.
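Throughout, for AC50 cell viability (CellTiter-Glo): HCT116 colorectal carcinoma cells screened at five concentrations per compound, luminescent viability scaled between DMSO wells and empty wells on each plate, curves fitted per compound.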
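Throughout, for efficacy (fitted maximal change in viability relative to DMSO control): Luminescence-based viability readout, five doses per compound, normalized against on-plate DMSO and empty-well controls, followed by dose-response curve fitting for every drug.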

`c1cc(-c2cnn3cc(-c4ccc(N5CCNCC5)cc4)cnc23)c2cccnc2c1`: in test [1], the AC50 cell viability worked out at 6.61 µM. In test [2], the efficacy was -81.9%.
On to `c1ccc2c(-c3cnn4cc(-c5ccc(OCCN6CCOCC6)cc5)cnc34)ccnc2c1`, for which, in test [1], the AC50 cell viability came to 6.45 µM. In addition, the efficacy in test [2] was -84.3%.
`CC(/C=C/[C@@H]1C[C@]1(C)c1ccc2c(c1)C(C)(C)CCC2(C)C)=C\C(=O)O` registered an AC50 cell viability in test [1] of 23.5 µM. For the same compound, the efficacy in test [2] is -66.8%.
For `CC(=O)NCC(=O)N1[C@@H]2CC[C@H]1c1ccc(Nc3ncc(C(F)(F)F)c(NC4CCC4)n3)cc12` the same measures were 1.48 µM and -73.5%.
`CC(C)c1ccc(Cn2ccc3c4c(N)nc(NC5CC5)nc4ccc32)cc1`: the AC50 cell viability in test [1] is 0.332 µM. The efficacy in test [2] was -102%.
For `CC(C)c1noc(N2CCC(COc3ccc(-c4ccc([S+](C)(=O)[O-])cc4)nc3)CC2)n1` the same measures were 3.72 µM and -32.3%.
Turning to `Cc1ccc(C(N)=O)cc1Nc1nccc(-c2cn(C(C)C)c3cnccc23)n1`, the AC50 cell viability in test [1] was determined as 2.09 µM. Besides, the efficacy in test [2] is -69.4%.
For `Cc1c(C(=O)Nc2cccc(C(F)(F)F)c2)cc(-c2ccccc2)n1CCCN1CCOCC1` the same measures were 20.9 µM and -75.8%.
The matching figures for `Cc1cnc(Nc2ccc(OCCN3CCCC3)cc2)nc1Nc1cccc([S+](=O)([O-])NC(C)(C)C)c1`: 2.63 µM and -109%.
Consider `Cc1cccc(Nc2nc(N[C@@H]3CCCC[C@@H]3N)ncc2C(N)=O)c1`, for which the AC50 cell viability in test [1] amounted to 7.42 µM. Also, in test [2], the efficacy is -94.8%.
The matching figures for `Cc1cc(N2CCOCC2)ccc1Nc1nc(NC2CCCCC2)c2nc[nH]c2n1`: 6.61 µM and -59.2%.
The matching figures for `Cc1ccc(NC(=O)c2ccc3c(c2)OCCO3)cc1NC(=O)c1ccc2nc(OCCN3CCCC3)ccc2c1`: 0.0407 µM and -69.9%.
In the case of `Cc1cccc(Nc2nc(-c3ccncc3)cs2)c1`, the AC50 cell viability in test [1] amounted to 18.6 µM. Besides, in test [2], the efficacy is -69.9%.
For `Cc1c[nH]c(-c2cnc(NCCNc3ccc(C#N)cn3)nc2-c2ccc(Cl)cc2Cl)n1` the same measures were 26.3 µM and -72.6%.
The matching figures for `Cc1nc2ccc(-n3ncc(C(=O)c4cc5ccccc5[nH]4)c3N)cc2[nH]1`: 8.33 µM and -71.3%.
For `Cc1n[nH]c2ccc(-c3cncc(OC[C@@H](N)Cc4c[nH]c5ccccc45)c3)cc12`, the AC50 cell viability in test [1] amounted to 0.417 µM. Besides, the efficacy in test [2] is -80.2%.
The matching figures for `CC1CC2=CC=CC=C2N1C(=O)C\C3=N\C(=O)\C=C(/N3)N4CCOCC4` (configuration not stated): 18.6 µM and -57.5%.
`CCN(CC)CCOC1=CC=C(NC2=NC=C3\C=C(/C(=O)N(C)C3=N2)C4=C(Cl)C=CC=C4Cl)C=C1`: the AC50 cell viability in test [1] was 1.18 µM. Also, in test [2], the efficacy is -86.9%.
`CCN1CCN(CC1)CC(=O)NC2=CC=C(C3=C2C4=C(S3)C=CC=C4)C5=C6O\C(=C/C(=O)C6=CC=C5)N7CCOCC7` showed an AC50 cell viability in test [1] of 1.29 µM. Also, the efficacy in test [2] is -81.5%.
The matching figures for `CN(C)CCCN\C1=C\2C(=O)N(C)C(=O)\N=C2N(C)C3=C1C=CC=C3`: 5.25 µM and -67.5%.
As to `CN(C)CCN(C)C(=O)c1ccc(NC(=O)Nc2ccc(-c3nc(N4CCOCC4)c4ccn(CC(F)(F)F)c4n3)cc2)cc1`, in test [1], the AC50 cell viability stood at 0.263 µM. In addition, in test [2], the efficacy was -118%.
For `CN(C)CCOc1ccc(-c2nc(-c3ccncc3)c(-c3ccc4c(c3)CC/C4=N\O)[nH]2)cc1` the same measures were 11.8 µM and -134%.
In test [1], `CNC(=O)Cn1cc(-c2ccc3c(c2)C(F)CC32NC(=O)N(CC(=O)N(Cc3ccc(F)cc3)[C@@H](C)C(F)(F)F)C2=O)cn1` (some centres not stated) had an AC50 cell viability of 0.742 µM. In test [2], the efficacy is -47.8%.
`COc1cc(C)c(Sc2cnc(NC(=O)c3ccc(CNC(C)C(C)(C)C)cc3)s2)cc1C(=O)N1CCN(C(C)=O)CC1` (configuration not stated): the AC50 cell viability in test [1] was determined as 11.8 µM. Besides, the efficacy in test [2] was -110%.
In test [1], `COc1ccccc1N1CCN(CCN(C(=O)C2CCCCC2)c2ccccn2)CC1` showed an AC50 cell viability of 13.2 µM. Also, the efficacy in test [2] was -31.7%.
For `COc1ccccc1[C@H](c1cccc2ccccc12)[C@@](C)(C#N)C(=O)N1CCC(c2cccc(C(F)(F)F)c2)CC1` the same measures were 0.833 µM and -39.8%.
The matching figures for `COC1=C(NC2=NC=C(Cl)C(=N2)N[C@@H]3[C@H]\4C[C@@H](\C=C4)[C@H]3C(N)=O)C=CC5=C1CCC(CC5)N6CCOCC6` (some centres not stated): 4.17 µM and -74.2%.
For `COc1cc2nc(N3CCCN(C)CC3)nc(NC3CCN(Cc4ccccc4)CC3)c2cc1OC` the same measures were 6.61 µM and -95.2%.
In turn, `COc1cc2c(Nc3ccc(NC(=O)c4ccccc4)cc3)ncnc2cc1OCCCN1CCOCC1` displayed an AC50 cell viability in test [1] of 18.6 µM. Also, the efficacy in test [2] is -120%.
The matching figures for `COc1ccc(OC)c(-c2nnc3ccc(-c4ccc(OC)c(O[C@@H]5CCOC5)c4)nn23)c1`: 2.95 µM and -66.5%.
The matching figures for `COc1cc(N2CCC(N(C)C)CC2)ccc1Nc1ncc(Cl)c(Nc2ccccc2P(C)(C)=O)n1`: 0.742 µM and -87.7%.
Compound `COc1cc(C(=O)NC2CCN(C)CC2)ccc1Nc1ncc2c(n1)N(C1CCCC1)CCC(=O)N2C(C)C` had an AC50 cell viability in test [1] of 14.8 µM. The efficacy in test [2] is -107%.
The matching figures for `COc1cc2nc(-c3cc(F)ccc3O)nc(N[C@@H]3CNC[C@H]3C(C)(C)O)c2cc1OC`: 3.72 µM and -87.7%.
The matching figures for `COc1cc2ncnc(Nc3cccc(Br)c3)c2cc1OC`: 20.9 µM and -53%.
The matching figures for `COc1ccc2nc3[nH]nc(C)c3c(NCCOCCO)c2c1`: 18.6 µM and -82.9%.
`COCC(=O)NC/C=C/c1ccc2ncnc(Nc3ccc(Oc4ccc(C)nc4)c(C)c3)c2c1` displayed an AC50 cell viability in test [1] of 20.9 µM. Also, the efficacy in test [2] is -64.8%.
In test [1], `COCCOc1ccc2c(c1)ncn2-c1ccc2cccc(N3CCC(N)CC3)c2n1` registered an AC50 cell viability of 2.95 µM. The efficacy in test [2] is -85.5%.
The matching figures for `Cc1nc([C@](C)(O)CO)sc1-c1cnc(N)c(O[C@H](C)c2cc(F)ccc2-n2nccn2)c1`: 3.72 µM and -57.7%.
For `C[C@H](CN(C)C)Oc1nc(Nc2cc3cccc(Cl)c3cn2)cnc1C#N` the same measures were 3.32 µM and -31.2%.
For `CC(=O)N1c2ccc(-c3ccc(C(=O)O)cc3)cc2[C@H](Nc2ccc(Cl)cc2)C[C@@H]1C` the same measures were 0.833 µM and -90.5%.
In test [1], `C[C@H]1C[C@@H](n2c(Nc3ccc(OC(F)(F)F)cc3)nc3cc(CCC(=O)O)ccc32)CC(C)(C)C1` gave an AC50 cell viability of 20.9 µM. Further, in test [2], the efficacy is -65%.
The matching figures for `C[C@@]1(c2ncncc2F)NC(=O)c2cc(-c3cn[nH]c3)ccc21`: 14.8 µM and -101%.
For `C[N]1C=C(C=N1)C2=C3\C=N/NC(=O)C4=C3C(=CC(=C4)NC(=O)[C@H](N)C5CCCCC5)[NH]2` the same measures were 16.6 µM and -67.8%.
For `Cn1ncc2cc(-c3cnc(N)c(Cl)c3N3CCC4(CCNC4=O)CC3)ccc21` the same measures were 16.6 µM and -46.1%.
In turn, `C/N=c1\ncc2cc(-c3cc(N/C(O)=N/CCC(C)(C)C)c(F)cc3C)c(C)nc2[nH]1` registered an AC50 cell viability in test [1] of 2.63 µM. Further, in test [2], the efficacy was -82.1%.
In test [1], `N#Cc1ccc(Cn2cncc2CN2CCN(c3cccc(Cl)c3)C(=O)C2)cc1` returned an AC50 cell viability of 0.332 µM. The efficacy in test [2] is -46%.
The matching figures for `O=C(Nc1cnccc1Cl)N1CCN(Cc2ccc3c(c2)OC(F)(F)O3)CC1`: 14.8 µM and -56.5%.
In test [1], `Nc1ncnc(Nc2ccc(OCc3ccccc3)c(Cl)c2)c1/C=N/OCCN1CCOCC1` registered an AC50 cell viability of 26.3 µM. In addition, the efficacy in test [2] was -98%.
With `Nc1ncnc2c1c(COc1cccc(Cl)c1)nn2C1CCOCC1`, the AC50 cell viability in test [1] worked out at 18.6 µM. The efficacy in test [2] is -37.2%.
`O=C(NC1CC1)c1cccc(-c2ccc3c(NC(=O)C4CC4)n[nH]c3c2)c1` registered an AC50 cell viability in test [1] of 9.34 µM. For the same compound, in test [2], the efficacy was -52.3%.
As to `O=C(O)c1ccc(O)c2ncc(N3CCOCC3)cc12`, the AC50 cell viability in test [1] was 23.5 µM. In addition, the efficacy in test [2] is -43%.
For `Oc1cc(-c2nc(-c3ccccc3)[nH]c2-c2ccncc2)ccc1Cl` the same measures were 4.17 µM and -90.3%.
In test [1], `OC1CCC(CC1)N2\C=N/C3=C(C2=N)C(=C([N]3CC4=CC=CC=C4)C5=CC=CC=C5)C6=CC=CC=C6` (configuration not stated) registered an AC50 cell viability of 2.95 µM. Further, the efficacy in test [2] is -107%.
`O=C(CC12CC3CC(CC(C3)C1)C2)Nc1cccc2nc(NCCNCCO)ccc12` returned an AC50 cell viability in test [1] of 26.3 µM. The efficacy in test [2] is -101%.
The matching figures for `O=C(N[C@H]1CCC[C@H](CO)C1)C1CCN(c2nc3cc(Cl)c(-c4ccc(Cl)cc4)cc3o2)CC1`: 23.5 µM and -83.2%.
The matching figures for `O=C(Nc1ncc(SCCN2CCCC2)s1)[C@]1(c2ccc([S+](=O)([O-])C3CC3)cc2)C[C@H]1C1CCCCC1`: 18.6 µM and -95.8%.

(Values after the supplement of paper PMC10290057.)
